Reference: PubChem BioAssay AID2060487 (Molecular Pharmacology Branch, DTP, NCI, 2025)
pIC50: −log10 of the molar value. One block for each compound: values may come before it.

Tested on: 997537-175-T-J1-PDC complex spheroid viability
Assay: Anticancer human tumor 997537-175-T-J1-PDC patient-derived colon adenocarcinoma cell line growth inhibition [GQUAD]
Details: for pIC50: curve of first compound; for viability, T/C: stronger effect = lower value
Outline: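 Multi-cell-type spheroids of tumor cells with HUVEC and mesenchymal stem cells, treated with drug combinations. Concentrations descend in half-log steps from near clinical Cmax, or from 10 microM where Cmax is unknown; viability read-out.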

[1] = second compound 0.0316 µM, first compound 0.0316 µM
[2] = second compound 0.0316 µM, first compound 0.1 µM
[3] = second compound 0.0316 µM, first compound 0.316 µM
[4] = second compound 0.0316 µM, first compound 1 µM
[5] = second compound 0.0316 µM, first compound 3.16 µM
[6] = second compound 0.0316 µM, first compound 10 µM
[7] = second compound 0.1 µM, first compound 0.0316 µM
[8] = second compound 0.1 µM, first compound 0.1 µM
[9] = second compound 0.1 µM, first compound 0.316 µM
[10] = second compound 0.1 µM, first compound 1 µM
[11] = second compound 0.1 µM, first compound 3.16 µM
[12] = second compound 0.1 µM, first compound 10 µM
[13] = second compound 0.316 µM, first compound 0.0316 µM
[14] = second compound 0.316 µM, first compound 0.1 µM
[15] = second compound 0.316 µM, first compound 0.316 µM
[16] = second compound 0.316 µM, first compound 1 µM
[17] = second compound 0.316 µM, first compound 3.16 µM
[18] = second compound 0.316 µM, first compound 10 µM
[19] = second compound 1 µM, first compound 0.0316 µM
[20] = second compound 1 µM, first compound 0.1 µM
[21] = second compound 1 µM, first compound 0.316 µM
[22] = second compound 1 µM, first compound 1 µM
[23] = second compound 1 µM, first compound 3.16 µM
[24] = second compound 1 µM, first compound 10 µM
[25] = second compound 3.16 µM, first compound 0.0316 µM
[26] = second compound 3.16 µM, first compound 0.1 µM
[27] = second compound 3.16 µM, first compound 0.316 µM
[28] = second compound 3.16 µM, first compound 1 µM
[29] = second compound 3.16 µM, first compound 3.16 µM
[30] = second compound 3.16 µM, first compound 10 µM
[31] = second compound 10 µM, first compound 0.0316 µM
[32] = second compound 10 µM, first compound 0.1 µM
[33] = second compound 10 µM, first compound 0.316 µM
[34] = second compound 10 µM, first compound 1 µM
[35] = second compound 10 µM, first compound 3.16 µM
[36] = second compound 10 µM, first compound 10 µM
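Further: spheroids exposed to the agents for 7 days.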
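Wherever viability, T/C is given: 100% = DMSO vehicle control viability.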

Structure (SMILES): CC1COCCN1c1cc(C2(O)CC3CCC(C2)O3)c2cnn(-c3ccn[nH]3)c2n1 (stereo not drawn) + CN(C)c1ccc(Nc2c3ccc(NC(=O)CCN4CCCC4)cc3nc3cc(NC(=O)CCN4CCCC4)ccc23)cc1
pIC50 (second compound 0.0316 µM): 6.10
pIC50 (second compound 0.1 µM): 6.34
pIC50 (second compound 0.316 µM): 5.77
pIC50 (second compound 1 µM): 6.68
pIC50 (second compound 3.16 µM): < 5.00
pIC50 (second compound 10 µM): < 5.00
viability, T/C [1]: 78.9%
viability, T/C [2]: 74.6%
viability, T/C [3]: 57.6%
viability, T/C [4]: 46.9%
viability, T/C [5]: 44.2%
viability, T/C [6]: 51.1%
viability, T/C [7]: 105%
viability, T/C [8]: 79%
viability, T/C [9]: 55.3%
viability, T/C [10]: 37.1%
viability, T/C [11]: 43.8%
viability, T/C [12]: 48.5%
viability, T/C [13]: 86.9%
viability, T/C [14]: 60.2%
viability, T/C [15]: 58.5%
viability, T/C [16]: 42.2%
viability, T/C [17]: 48.7%
viability, T/C [18]: 54.2%
viability, T/C [19]: 77.7%
viability, T/C [20]: 52.8%
viability, T/C [21]: 44.8%
viability, T/C [22]: 40.7%
viability, T/C [23]: 49%
viability, T/C [24]: 60%
viability, T/C [25]: 55.8%
viability, T/C [26]: 65.7%
viability, T/C [27]: 70.2%
viability, T/C [28]: 45.6%
viability, T/C [29]: 47.9%
viability, T/C [30]: 66.5%
viability, T/C [31]: 82.7%
viability, T/C [32]: 61.9%
viability, T/C [33]: 69.4%
viability, T/C [34]: 47%
viability, T/C [35]: 41.8%
viability, T/C [36]: 66.5%

Structure (SMILES): CC1COCCN1c1cc(-c2ccnn2C)c2ccnc(-c3ccn[nH]3)c2n1 (stereo not drawn) + CN(C)c1ccc(Nc2c3ccc(NC(=O)CCN4CCCC4)cc3nc3cc(NC(=O)CCN4CCCC4)ccc23)cc1
pIC50 (second compound 0.0316 µM): 6.10
pIC50 (second compound 0.1 µM): 5.61
pIC50 (second compound 0.316 µM): < 5.00
pIC50 (second compound 1 µM): < 5.00
pIC50 (second compound 3.16 µM): < 5.00
pIC50 (second compound 10 µM): 6.58
viability, T/C [1]: 86.6%
viability, T/C [2]: 78.5%
viability, T/C [3]: 58.1%
viability, T/C [4]: 43.9%
viability, T/C [5]: 46.8%
viability, T/C [6]: 30.1%
viability, T/C [7]: 95.8%
viability, T/C [8]: 81.9%
viability, T/C [9]: 69.5%
viability, T/C [10]: 56.6%
viability, T/C [11]: 40.1%
viability, T/C [12]: 52.9%
viability, T/C [13]: 97.7%
viability, T/C [14]: 69.4%
viability, T/C [15]: 61.6%
viability, T/C [16]: 35.5%
viability, T/C [17]: 54.9%
viability, T/C [18]: 59.8%
viability, T/C [19]: 82.5%
viability, T/C [20]: 59.7%
viability, T/C [21]: 56.1%
viability, T/C [22]: 34%
viability, T/C [23]: 68.8%
viability, T/C [24]: 51%
viability, T/C [25]: 60.6%
viability, T/C [26]: 70.3%
viability, T/C [27]: 52.3%
viability, T/C [28]: 44.1%
viability, T/C [29]: 67.8%
viability, T/C [30]: 60.6%
viability, T/C [31]: 89.6%
viability, T/C [32]: 68.8%
viability, T/C [33]: 43.8%
viability, T/C [34]: 32.6%
viability, T/C [35]: 50%
viability, T/C [36]: 59.5%

pIC50 (second compound 0.0316 µM): < 5.00
pIC50 (second compound 0.1 µM): < 5.00
pIC50 (second compound 0.316 µM): < 5.00
pIC50 (second compound 1 µM): < 5.00
pIC50 (second compound 3.16 µM): < 5.00
pIC50 (second compound 10 µM): < 5.00
Structure (SMILES): O=c1[nH]cc(F)c(=O)[nH]1 + Cc1cnc(CNC(=O)c2c(=O)c3ccc(N4CCCN(C)CC4)nc3n3c2sc2ccccc23)cn1
viability, T/C [1]: 96.2%
viability, T/C [2]: 87.6%
viability, T/C [3]: 85.1%
viability, T/C [4]: 92.8%
viability, T/C [5]: 89.6%
viability, T/C [6]: 76.2%
viability, T/C [7]: 75.6%
viability, T/C [8]: 82.8%
viability, T/C [9]: 92.8%
viability, T/C [10]: 82.8%
viability, T/C [11]: 102%
viability, T/C [12]: 83%
viability, T/C [13]: 75.9%
viability, T/C [14]: 74.3%
viability, T/C [15]: 84%
viability, T/C [16]: 105%
viability, T/C [17]: 110%
viability, T/C [18]: 111%
viability, T/C [19]: 88.1%
viability, T/C [20]: 70.1%
viability, T/C [21]: 84.9%
viability, T/C [22]: 109%
viability, T/C [23]: 67.2%
viability, T/C [24]: 82.6%
viability, T/C [25]: 78.4%
viability, T/C [26]: 96.1%
viability, T/C [27]: 87.8%
viability, T/C [28]: 90.1%
viability, T/C [29]: 82.7%
viability, T/C [30]: 92.7%
viability, T/C [31]: 73.7%
viability, T/C [32]: 95.3%
viability, T/C [33]: 98.3%
viability, T/C [34]: 75.2%
viability, T/C [35]: 107%
viability, T/C [36]: 90.6%

pIC50 (second compound 0.0316 µM): < 5.00
pIC50 (second compound 0.1 µM): < 5.00
pIC50 (second compound 0.316 µM): < 5.00
pIC50 (second compound 1 µM): < 5.00
pIC50 (second compound 3.16 µM): < 5.00
pIC50 (second compound 10 µM): < 5.00
Structure (SMILES): COc1ncnc(C2CC2)c1-c1ncc2cnn(Cc3ccc(-c4nc(C(F)(F)F)cn4C(C)C)cc3)c2n1 + Cc1cnc(CNC(=O)c2c(=O)c3ccc(N4CCCN(C)CC4)nc3n3c2sc2ccccc23)cn1
viability, T/C [1]: 118%
viability, T/C [2]: 78.4%
viability, T/C [3]: 102%
viability, T/C [4]: 66.6%
viability, T/C [5]: 55.3%
viability, T/C [6]: 96.1%
viability, T/C [7]: 95.3%
viability, T/C [8]: 69%
viability, T/C [9]: 88.5%
viability, T/C [10]: 92.5%
viability, T/C [11]: 85%
viability, T/C [12]: 94.5%
viability, T/C [13]: 89.1%
viability, T/C [14]: 86.2%
viability, T/C [15]: 89.5%
viability, T/C [16]: 88.5%
viability, T/C [17]: 91.3%
viability, T/C [18]: 92.7%
viability, T/C [19]: 73.8%
viability, T/C [20]: 85.1%
viability, T/C [21]: 100%
viability, T/C [22]: 101%
viability, T/C [23]: 121%
viability, T/C [24]: 97.5%
viability, T/C [25]: 56%
viability, T/C [26]: 107%
viability, T/C [27]: 104%
viability, T/C [28]: 84.7%
viability, T/C [29]: 106%
viability, T/C [30]: 97.4%
viability, T/C [31]: 75.3%
viability, T/C [32]: 109%
viability, T/C [33]: 101%
viability, T/C [34]: 92%
viability, T/C [35]: 102%
viability, T/C [36]: 116%
